The subject of this test is recombinant NL4-3 virus. The test can be described thus: HIV cell culture assay. Format: cell-based. The conditions noted are these: Human immunodeficiency virus 1, NL43, MT2. The method, then: HIV cell culture assay—MT-2 cells and 293T cells were obtained from the NIH AIDS Research and Reference Reagent Program. MT-2 cells were propagated in RPMI 1640 media supplemented with 10% heat inactivated fetal bovine serum, 100 […]. The 293T cells were propagated in DMEM media supplemented with 10% heat inactivated fetal bovine serum (FBS), 100 units/ml penicillin G and 100 μg/ml streptomycin. The proviral DNA clone of NL4-3 was obtained from the NIH AIDS Research and Reference Reagent Program. A recombinant NL4-3 virus, in which a section of the nef gene from NL4-3 was replaced with the Renilla luciferase gene, was used as a reference virus. In addition, residue Gag P373 was converted to P373S. Briefly, the recombinant virus was prepared by transfection of the altered proviral clone of NL4-3. Transfections were performed in 293T cells using LipofectAMINE PLUS from Invitrogen (Carlsbad, Calif.), according to manufacturer's instruction. The virus was titered in MT-2 cells using luciferase enzyme activity as a marker. Luciferase was quantitated using the Dual Luciferase kit from Promega (Madison, Wis.), with modifications to the manufacturer's protocol. The diluted Passive Lysis solution was pre-mixed with the re-suspended Luciferase Assay Reagent and the re-suspended Stop & Glo Substrate (2:1:1 ratio). Fifty (50) μL of the mixture was added to each aspirated well on assay plates and luciferase activity was measured immediately on a Wallac TriLux (Perkin-Elmer). Antiviral activities of inhibitors toward the recombinant virus were quantified by measuring luciferase activity in cells infected for 4-5 days with NLRluc recombinants in the presence serial dilutions of the inhibitor.
In the case of `C=C(C)[C@@H]1CC[C@]2(C(=O)O)CC[C@]3(C)[C@H](CC[C@@H]4[C@@]5(C)CC(=O)N(c6ccc(C(=O)O)cc6)C(C)(C)[C@@H]5CC[C@]43C)[C@@H]12` [Example 22, (4aR,6aR,6bR,8aS,11R,11aR,11bR,13aR,13bR)-3-(4-carboxyphenyl)-4,4,6a,6b,13b-pentamethyl-2-oxo-11-(prop-1-en-2-yl)icosahydro-8aH-cyclopenta[5,6]naphtho[2,1-f]isoquinoline-8a-carboxylic acid], the 50% effective concentration (EC50) is above 3000 nM. The same measure for `C=C(C)[C@@H]1CC[C@]2(CNCCCN3CCS(=O)(=O)CC3)CC[C@]3(C)[C@H](CC[C@@H]4[C@@]5(C)CCN(C(=O)CC(C)(C)C(=O)O)C(C)(C)[C@@H]5CC[C@]43C)[C@@H]12` [Example 23, 4-((4aR,6aR,6bR,8aS,11R,11aR,11bR,13aR,13bR)-8a-(((3-(1,1-dioxidothiomorpholino)propyl)amino)methyl)-4,4,6a,6b,13b-pentamethyl-11-(prop-1-en-2-yl)icosahydro-3H-cyclopenta[5,6]naphtho[2,1-f]isoquinolin-3-yl)-2,2-dimethyl-4-oxobutanoic acid]: 390 nM. In the case of `C=C(C)[C@@H]1CC[C@]2(CNCCCN3CCS(=O)(=O)CC3)CC[C@]3(C)[C@H](CC[C@@H]4[C@@]5(C)CCN(C(=O)CC(C)(C)CC(=O)O)C(C)(C)[C@@H]5CC[C@]43C)[C@@H]12` [Example 24, 5-((4aR,6aR,6bR,8aS,11R,11aR,11bR,13aR,13bR)-8a-(((3-(1,1-dioxidothiomorpholino)propyl)amino)methyl)-4,4,6a,6b,13b-pentamethyl-11-(prop-1-en-2-yl)icosahydro-3H-cyclopenta[5,6]naphtho[2,1-f]isoquinolin-3-yl)-3,3-dimethyl-5-oxopentanoic acid], the EC50 worked out at 120 nM.

For `C=C(C)[C@@H]1CC[C@]2(CNCCCN3CCS(=O)(=O)CC3)CC[C@]3(C)[C@H](CC[C@@H]4[C@@]5(C)CCN(C(=O)CCC(C)(C)C(=O)O)C(C)(C)[C@@H]5CC[C@]43C)[C@@H]12` [Example 25, 5-((4aR,6aR,6bR,8aS,11R,11aR,11bR,13aR,13bR)-8a-(((3-(1,1-dioxidothiomorpholino)propyl)amino)methyl)-4,4,6a,6b,13b-pentamethyl-11-(prop-1-en-2-yl)hexadecahydro-1H-cyclopenta[5,6]naphtho[2,1-f]isoquinolin-3(2H,4H,13bH)-yl)-2,2-dimethyl-5-oxopentanoic acid], the EC50 came out at 120 nM. The same measure for `C=C(C)[C@@H]1CC[C@]2(CNCCCN3CCS(=O)(=O)CC3)CC[C@]3(C)[C@H](CC[C@@H]4[C@@]5(C)CCN(C(=O)CC6(CC(=O)O)CCCC6)C(C)(C)[C@@H]5CC[C@]43C)[C@@H]12` [Example 26, 2-(1-(2-((4aR,6aR,6bR,8aS,11R,11aR,11bR,13aR,13bR)-8a-(((3-(1,1-dioxidothiomorpholino)propyl)amino)methyl)-4,4,6a,6b,13b-pentamethyl-11-(prop-1-en-2-yl)hexadecahydro-1H-cyclopenta[5,6]naphtho[2,1-f]isoquinolin-3(2H,4H,13bH)-yl)-2-oxoethyl)cyclopentyl)acetic acid]: 130 nM; for `C=C(C)[C@@H]1CC[C@]2(CNCCCN3CCS(=O)(=O)CC3)CC[C@]3(C)[C@H](CC[C@@H]4[C@@]5(C)CCN(C(=O)Cc6cccc(CC(=O)O)c6)C(C)(C)[C@@H]5CC[C@]43C)[C@@H]12` [Example 27, 2-(3-(2-((4aR,6aR,6bR,8aS,11R,11aR,11bR,13aR,13bR)-8a-(((3-(1,1-dioxidothiomorpholino)propyl)amino)methyl)-4,4,6a,6b,13b-pentamethyl-11-(prop-1-en-2-yl)hexadecahydro-1H-cyclopenta[5,6]naphtho[2,1-f]isoquinolin-3(2H,4H,13bH)-yl)-2-oxoethyl)phenyl)acetic acid]: 300 nM; for `C=C(C)[C@@H]1CC[C@]2(CNCCCN3CCS(=O)(=O)CC3)CC[C@]3(C)[C@H](CC[C@@H]4[C@@]5(C)CCN(C(=O)CCc6ccc(C(=O)O)cc6)C(C)(C)[C@@H]5CC[C@]43C)[C@@H]12` [Example 28, 4-(3-((4aR,6aR,6bR,8aS,11R,11aR,11bR,13aR,13bR)-8a-(((3-(1,1-dioxidothiomorpholino)propyl)amino)methyl)-4,4,6a,6b,13b-pentamethyl-11-(prop-1-en-2-yl)hexadecahydro-1H-cyclopenta[5,6]naphtho[2,1-f]isoquinolin-3(2H,4H,13bH)-yl)-3-oxopropyl)benzoic acid]: 940 nM. Consider `C=C(C)[C@@H]1CC[C@]2(CNCCCN3CCS(=O)(=O)CC3)CC[C@]3(C)[C@H](CC[C@@H]4[C@@]5(C)CCN(C(=O)/C=C/c6ccc(C(=O)O)cc6)C(C)(C)[C@@H]5CC[C@]43C)[C@@H]12` [Example 29, 4-((E)-3-((4aR,6aR,6bR,8aS,11R,11aR,11bR,13aR,13bR)-8a-(((3-(1,1-dioxidothiomorpholino)propyl)amino)methyl)-4,4,6a,6b,13b-pentamethyl-11-(prop-1-en-2-yl)hexadecahydro-1H-cyclopenta[5,6]naphtho[2,1-f]isoquinolin-3(2H,4H,13bH)-yl)-3-oxoprop-1-en-1-yl)benzoic acid], for which the EC50 amounted to 1590 nM. The same measure for `C=C(C)[C@@H]1CC[C@]2(CNCCCN3CCS(=O)(=O)CC3)CC[C@]3(C)[C@H](CC[C@@H]4[C@@]5(C)CCN(C(=O)c6ccc(C(=O)O)cc6)C(C)(C)[C@@H]5CC[C@]43C)[C@@H]12` [Example 30, 4-((4aR,6aR,6bR,8aS,11R,11aR,11bR,13aR,13bR)-8a-(((3-(1,1-dioxidothiomorpholino)propyl)amino)methyl)-4,4,6a,6b,13b-pentamethyl-11-(prop-1-en-2-yl)icosahydro-1H-cyclopenta[5,6]naphtho[2,1-f]isoquinoline-3-carbonyl)benzoic acid]: 110 nM; for `C=C(C)[C@@H]1CC[C@]2(CNCCCN3CCS(=O)(=O)CC3)CC[C@]3(C)[C@H](CC[C@@H]4[C@@]5(C)CCN(C(=O)/C=C/C(=O)O)C(C)(C)[C@@H]5CC[C@]43C)[C@@H]12` [Example 32, (E)-4-((4aR,6aR,6bR,8aS,11R,11aR,11bR,13aR,13bR)-8a-(((3-(1,1-dioxidothiomorpholino)propyl)amino)methyl)-4,4,6a,6b,13b-pentamethyl-11-(prop-1-en-2-yl)hexadecahydro-1H-cyclopenta[5,6]naphtho[2,1-f]isoquinolin-3(2H,4H,13bH)-yl)-4-oxobut-2-enoic acid]: 300 nM; for `C=C(C)[C@@H]1CC[C@]2(CNCCCN3CCS(=O)(=O)CC3)CC[C@]3(C)[C@H](CC[C@@H]4[C@@]5(C)CCN(CC(=O)O)C(C)(C)[C@@H]5CC[C@]43C)[C@@H]12` [Example 33, 2-((4aR,6aR,6bR,8aS,11R,11aR,11bR,13aR,13bR)-8a-(((3-(1,1-dioxidothiomorpholino)propyl)amino)methyl)-4,4,6a,6b,13b-pentamethyl-11-(prop-1-en-2-yl)hexadecahydro-1H-cyclopenta[5,6]naphtho[2,1-f]isoquinolin-3(2H,4H,13bH)-yl)acetic acid]: above 3000 nM. The result for `C=C(C)[C@@H]1CC[C@]2(CNCCCN3CCS(=O)(=O)CC3)CC[C@]3(C)[C@H](CC[C@@H]4[C@@]5(C)CCN(C/C=C/C(=O)O)C(C)(C)[C@@H]5CC[C@]43C)[C@@H]12` [Example 34, (E)-4-((4aR,6aR,6bR,8aS,11R,11aR,11bR,13aR,13bR)-8a-(((3-(1,1-dioxidothiomorpholino)propyl)amino)methyl)-4,4,6a,6b,13b-pentamethyl-11-(prop-1-en-2-yl)hexadecahydro-1H-cyclopenta[5,6]naphtho[2,1-f]isoquinolin-3(2H,4H,13bH)-yl)but-2-enoic acid] reads above 3000 nM; that for `C=C(C)[C@@H]1CC[C@]2(CNCCCN3CCS(=O)(=O)CC3)CC[C@]3(C)[C@H](CC[C@@H]4[C@@]5(C)CCN(CC(=O)NC(C)(C)C(=O)O)C(C)(C)[C@@H]5CC[C@]43C)[C@@H]12` [Example 35, 2-(2-((4aR,6aR,6bR,8aS,11R,11aR,11bR,13aR,13bR)-8a-(((3-(1,1-dioxidothiomorpholino)propyl)amino)methyl)-4,4,6a,6b,13b-pentamethyl-11-(prop-1-en-2-yl)hexadecahydro-1H-cyclopenta[5,6]naphtho[2,1-f]isoquinolin-3(2H,4H,13bH)-yl)acetamido)-2-methylpropanoic acid], above 3000 nM; that for `C=C(C)[C@@H]1CC[C@]2(CN(C)CCCN3CCS(=O)(=O)CC3)CC[C@]3(C)[C@H](CC[C@@H]4[C@@]5(C)CCN(CC(=O)NC(C)(C)C(=O)O)C(C)(C)[C@@H]5CC[C@]43C)[C@@H]12` [Example 36, 2-(2-((4aR,6aR,6bR,8aS,11R,11aR,11bR,13aR,13bR)-8a-(((3-(1,1-dioxidothiomorpholino)propyl)(methyl)amino)methyl)-4,4,6a,6b,13b-pentamethyl-11-(prop-1-en-2-yl)hexadecahydro-1H-cyclopenta[5,6]naphtho[2,1-f]isoquinolin-3(2H,4H,13bH)-yl)acetamido)-2-methylpropanoic acid], 1300 nM.
